# Measured values reported in US10640507B2, “PBD antibacterial agents” (KING'S COLLEGE LONDON, priority 2015, dated 2020).
# Where two headings read alike, the source gives them in different places.
# Assays:
# [1] = tested on: A. baumannii - NCTC 17978; assay: Time kill kinetics; type: cell-based; conditions: drug at 4×MIC
# Protocol: 1. Grow bacteria overnight.
# 2. Subculture into an autoclaved conical flask containing 10 ml of TSB to an OD of 0.01 (˜1×10^7 Cfu/ml for KP-M6).
# 4. Take aliquots (100 μl) at timepoints (0, 1, 2, 4, 6, 24 hours) and carry out a serial dilution in PBS (to remove drug and to dilute bacteria to countable numbers).
# 5. Use the serial dilution to perform a Miles Misra—i.e. Add 3×10 μl spots of each dilution onto an agar plate. Incubate overnight and count colonies on spots in the morning.
# 6. Control: Subculture bacteria alongside samples but with no antibiotic added. Take aliquots from this at every time point (0, 1, 2, 4, 6, 24 hours) and perform Miles Misra on these too (as detailed in points 4 and 5 above).
# 7. After the first experiment, if the counts seen on Miles-Misra were zero, total viable counts were determined by spreading 200 μl in a streak down the centre of a TSB agar plate, waiting for the liquid to be absorbed and then spreading over the plate and checking for growth inhibition at the sight of the original streak.
# 8. The compound is considered bactericidal if the inoculum was reduced >3 log10 CFU/ml and bacteriostatic if inoculum was reduced by 0-3 log10 CFU/ml.
# Three measurements were taken for each compound at each time point. These measurements were averaged and the standard deviation was also calculated.
# [2] = tested on: E. faecium VRE NCTC 12204; assay: General MIC protocol, Gram positive panel; type: cell-based
# Protocol: (§1) General Minimum Inhibitory Concentration (MIC) Protocol
# (§2) 1. Grow up cultures of bacterial strains to be tested overnight.
# (§3) 2. Dilute down overnight cultures to concentration of 1×10^6 bacteria/ml (OD0.01) in Tryptic soy broth (TSB).
# (§4) 3. Add 100 μl of TSB media to column 2-column 12 in 96 well plate (keeping column 1 clear).
# (§5) 4. Make up compound to a concentration of 64 μg/ml in water (or alternatively to twice the chosen maximum concentration to be tested).
# (§6) 5. Add 100 μl of antibiotic solution to the 1st and 2nd columns.
# (§7) 6. Using a multichannel pipette take 100 μl from the 2nd column wells and pipette into 3rd column wells and repeat down the 96 well plate (remembering to include controls i.e. uninfected media and media with no antibiotic).
# (§8) 7. To each well (except uninfected control row H) add 100 μl of bacterially infected media at a concentration of 1×10^6/ml.
# (§9) 8. This dilutes down the concentration of the antibiotic by half (top dose is therefore 32 μg/ml in column 1) and also gives you a starting bacterial concentration of 5×10^5/ml.
# (§10) 9. Wrap plate with parafilm to prevent evaporation.
# (§11) 10. Leave at desired temperature (37° C. unless specified elsewhere) for 20 hours.
# (§12) 11. Next day check plates for growth and measure optical density (i.e. absorbance) at a wavelength of 600 nm (OD600).
# (§13) An example of such a plate is shown in FIG. 1 where column A represents wells that receive the top dose 100 μl; column B represents wells that receive the top dose 100 μl+100 μl TSB; and column C represents wells that receive 100 μl TSB. Row H which is marked by a box labelled D represents a blank where the cells receive no bacteria.
# [3] = tested on: EMRSA-15; assay: General MIC protocol, Gram positive panel; type: cell-based
# Protocol: as §1, §2, §3, §4, §5, §6, §7, §8, §9, §10, §11, §12, §13
# [4] = tested on: E. faecalis VSE NCTC 775; assay: General MIC protocol, Gram positive panel; type: cell-based; conditions: Enterococcus faecalis, NCTC775; VSE 775
# Protocol: as §1, §2, §3, §4, §5, §6, §7, §8, §9, §10, §11, §12, §13
# [5] = tested on: methicillin sensitive S. aureus ATTC 9144 (NCTC 6571); assay: General MIC protocol, Gram positive panel; type: cell-based; conditions: Staphylococcus aureus, MSSA / NCTC 6571; MSSA 9144
# Protocol: as §1, §2, §3, §4, §5, §6, §7, §8, §9, §10, §11, §12, §13
# [6] = tested on: EMRSA-16; assay: General MIC protocol, Gram positive panel; type: cell-based
# Protocol: as §1, §2, §3, §4, §5, §6, §7, §8, §9, §10, §11, §12, §13
# [7] = tested on: E. faecalis VRE NCTC 12201; assay: General MIC protocol, Gram positive panel; type: cell-based
# Protocol: as §1, §2, §3, §4, §5, §6, §7, §8, §9, §10, §11, §12, §13
# [8] = tested on: PA01; assay: Effect of efflux pump inhibitors (EPIs) on MIC; type: cell-based, P. aeruginosa; conditions: for +PABN MIC: PABN at 25 μg/ml; for MIC: Pseudomonas aeruginosa
# Protocol: as §2, §3, §4
# (§14) 4. Make up compound to a concentration of 64 μg/ml in water.
# as §6
# (§15) 6. Using a multichannel pipette take 100 μl from the 2nd column wells and pipette into 3rd column wells and repeat down the 96 well plate (remember to include controls i.e. uninfected media and media with no antibiotic).
# (§16) 7. To each well (except uninfected control row H) add 50 μl/well of EPI at 4× final concentration in TSB.
# (§17) 9. In wells used to test the effect of the EPI carbonyl cyanide 3-chlorophenylhydrazone (CCCP) the CCCP is added at 10 μg/ml final concentration.
# (§18) 10. In wells used to test the effect of the EPI phenylalanine-arginine β-naphthylamide (PABN) the PABN is added at 25 μg/ml final concentration.
# (§19) 11. In wells used to test the effect of the PABN+Mg, the PABN is added at 25 μg/ml final concentration, with 1 mM MgSO4 in TSB.
# (§20) 12. Wrap plate with parafilm to prevent evaporation.
# (§21) 13. Leave at desired temperature (37° C. unless specified elsewhere) for 20 hours.
# (§22) 14. Next day check plates for growth and measure optical density (i.e. absorbance) at a wavelength of 600 nm (OD600).
# (§23) Compound KMR-14-33 was tested against a range of bacterial species using the above protocol. Compound PP-A148 was also tested against a more limited range of bacterial species using the above protocol. For KMR-14-33 measurements were carried out for the compound alone, for the compound plus CCCP, for the compound plus PABN and for the compound plus PABN and plus Mg. For PP-A148 measurements were carried out for the compound alone and for the compound plus PABN.
# [9] = tested on: NCTC 13437; assay: Effect of efflux pump inhibitors (EPIs) on MIC; type: cell-based, P. aeruginosa; conditions: for +PABN MIC: PABN at 25 μg/ml; for MIC: Pseudomonas aeruginosa
# Protocol: as §2, §3, §4, §14, §6, §15, §16, §17, §18, §19, §20, §21, §22, §23
# [10] = tested on: NCTC 13438; assay: Effect of efflux pump inhibitors (EPIs) on MIC; type: cell-based, K. pneumoniae; conditions: for MIC: Klebsiella pneumoniae
# Protocol: as §2, §3, §4, §14, §6, §15, §16, §17, §18, §19, §20, §21, §22, §23
# [11] = tested on: NCTC 17978; assay: Effect of efflux pump inhibitors (EPIs) on MIC; type: cell-based, A. bauamnnii; conditions: for +PABN MIC: PABN at 25 μg/ml
# Protocol: as §2, §3, §4, §14, §6, §15, §16, §17, §18, §19, §20, §21, §22, §23
# [12] = PABN at 25 μg/ml with 1 mM MgSO4
# [13] = CCCP at 10 μg/ml, read-out: +CCCP MIC
# [14] = no EPI, read-out: Control with no EPI MIC
# [15] = NCTC13437, read-out: Control with no EPI MIC
compound,measurement,setting,value
"O=C(O)c1cn(C2CC2)c2cc(N3CCNCC3)c(F)cc2c1=O [CIP, ciprofloxacin, reference compound]",Average (CFU/ml),[1]; time-point 1 hours,7000 CFU/ml
same,n = 1 (Log CFU/ml),[1]; time-point 1 hours,19000 Log CFU/ml
same,n = 2 (Log CFU/ml),[1]; time-point 1 hours,0 Log CFU/ml
same,Average (CFU/ml),[1]; time-point 2 hours,584 CFU/ml
same,n = 1 (Log CFU/ml),[1]; time-point 2 hours,1500 Log CFU/ml
same,n = 2 (Log CFU/ml),[1]; time-point 2 hours,0 Log CFU/ml
same,Average (CFU/ml),[1]; time-point 4 hours,10.7 CFU/ml
same,n = 1 (Log CFU/ml),[1]; time-point 4 hours,0 Log CFU/ml
same,n = 2 (Log CFU/ml),[1]; time-point 4 hours,30 Log CFU/ml
same,Average (CFU/ml),[1]; time-point 6 hours,0 CFU/ml
same,n = 1 (Log CFU/ml),[1]; time-point 6 hours,0 Log CFU/ml
same,n = 2 (Log CFU/ml),[1]; time-point 6 hours,0 Log CFU/ml
same,Average (CFU/ml),[1]; time-point 24 hours,4 CFU/ml
same,n = 1 (Log CFU/ml),[1]; time-point 24 hours,10 Log CFU/ml
same,n = 2 (Log CFU/ml),[1]; time-point 24 hours,0 Log CFU/ml
"COc1cc2c(cc1OCCCC(=O)Nc1cc(C(=O)Nc3ccc4sc(C(=O)N(C)C)cc4c3)n(C)c1)N=C[C@@H]1CCCN1C2=O [KMR-14-33, (S)—N-(2-(dimethylcarbamoyl)benzo[b]thiophen-5-yl)-4-(4-((7-methoxy-5-oxo-2,3,5,11a-tetrahydro-1H-benzo[e]pyrrolo[1,2-a][1,4]-diazepin-8-yl)oxy)butanamido)-1-methyl-1H-pyrrole-2-carboxamide]",MIC,[2],0.03 µg/mL
same,MIC,[3],0.03 µg/mL
same,MIC,[4],0.03 µg/mL
same,MIC,[5],0.03 µg/mL
same,MIC,[6],0.06 µg/mL
same,MIC,[7],0.03 µg/mL
same,+PABN MIC,[8],4 µg/mL
same,+PABN + Mg MIC,[8]; [12],2 µg/mL
same,MIC,[8]; [13],> 32 µg/mL
same,MIC,[8]; [14],> 32 µg/mL
same,+PABN MIC,[9]; NCTC 13437,16 µg/mL
same,+PABN + Mg MIC,"[9]; NCTC 13437, PABN at 25 μg/ml with 1 mM MgSO4",16 µg/mL
same,MIC,"[9]; NCTC13437, read-out: +CCCP MIC",> 32 µg/mL
same,MIC,[9]; [15],> 32 µg/mL
same,MIC,"[10]; NCTC13438, read-out: +CCCP MIC",0.5 µg/mL
same,MIC,"[10]; NCTC13438, read-out: Control with no EPI MIC",0.5 µg/mL
same,+PABN MIC,"[10]; NCTC 13438, PABN at 25 μg/ml",0.125 µg/mL
same,+PABN + Mg MIC,"[10]; NCTC 13438, PABN at 25 μg/ml with 1 mM MgSO4",0.25 µg/mL
same,Average (CFU/ml),[1]; time-point 1 hours,0 CFU/ml
same,n = 1 (Log CFU/ml),[1]; time-point 1 hours,0 Log CFU/ml
same,n = 2 (Log CFU/ml),[1]; time-point 1 hours,0 Log CFU/ml
same,n = 3 (Log CFU/ml),[1]; time-point 1 hours,0 Log CFU/ml
same,Average (CFU/ml),[1]; time-point 2 hours,0 CFU/ml
same,n = 1 (Log CFU/ml),[1]; time-point 2 hours,0 Log CFU/ml
same,n = 2 (Log CFU/ml),[1]; time-point 2 hours,0 Log CFU/ml
same,n = 3 (Log CFU/ml),[1]; time-point 2 hours,0 Log CFU/ml
same,Average (CFU/ml),[1]; time-point 4 hours,0 CFU/ml
same,n = 1 (Log CFU/ml),[1]; time-point 4 hours,0 Log CFU/ml
same,n = 2 (Log CFU/ml),[1]; time-point 4 hours,0 Log CFU/ml
same,n = 3 (Log CFU/ml),[1]; time-point 4 hours,0 Log CFU/ml
same,Average (CFU/ml),[1]; time-point 6 hours,0 CFU/ml
same,n = 1 (Log CFU/ml),[1]; time-point 6 hours,0 Log CFU/ml
same,n = 2 (Log CFU/ml),[1]; time-point 6 hours,0 Log CFU/ml
same,n = 3 (Log CFU/ml),[1]; time-point 6 hours,0 Log CFU/ml
same,Average (CFU/ml),[1]; time-point 24 hours,0 CFU/ml
same,n = 1 (Log CFU/ml),[1]; time-point 24 hours,0 Log CFU/ml
same,n = 2 (Log CFU/ml),[1]; time-point 24 hours,0 Log CFU/ml
same,n = 3 (Log CFU/ml),[1]; time-point 24 hours,0 Log CFU/ml
same,MIC,[11]; [13],0.25 µg/mL
same,+PABN MIC,[11],0.06 µg/mL
same,+PABN + Mg MIC,[11]; [12],0.25 µg/mL
same,MIC,[11]; [14],0.5 µg/mL
"COc1cc2c(cc1OCCCC(=O)Nc1cc(C(=O)Nc3ccc4oc(C(=O)N5CCSCC5)cc4c3)n(C)c1)N=C[C@@H]1CCCN1C2=O [PP-A148, (S)-4-(4-((7-methoxy-5-oxo-2,3,5,11a-tetrahydro-1H-benzo-[e]pyrrolo[1,2-a][1,4]diazepin-8-yl)oxy)butanamido)-1-methyl-N-(2-(thiomorpholine-4-carbonyl)benzofuran-5-yl)-1H-pyrrole-2-carboxamide]",MIC,[2],0.01 µg/mL
same,MIC,[3],2 µg/mL
same,MIC,[4],1 µg/mL
same,MIC,[5],0.5 µg/mL
same,MIC,[6],2 µg/mL
same,MIC,[7],0.25 to 0.5 µg/mL
same,+PABN MIC,[8],4 to 8 µg/mL
same,MIC,[8]; [14],128 µg/mL
same,+PABN MIC,[9]; NCTC 13437,0.25 to 2 µg/mL
same,MIC,[9]; [15],16 µg/mL
same,+PABN MIC,[11],0.125 to 0.5 µg/mL
same,MIC,[11]; [14],2 µg/mL
